From patent US20080146617A1, “Methods of treating inflammatory diseases” (Roche Palo Alto LLC, priority 2006, published 2008)
Where two headings read alike, the source gives them in different places.

Columns and labels:
Assay in all cases: KinomeScan kinase profiling
Format in all cases: binding
AMPK-alpha1 = target: T1, AMPK-alpha1 (Homo sapiens, UniProt Q13131)
T1 construct: purchased Ambit Biosciences (San Diego, Calif.)

STK3 = target: T2, STK3 (Homo sapiens, UniProt Q13188)
T2 construct: purchased Ambit Biosciences

p38-alpha = target: T3, p38-alpha (Homo sapiens, UniProt Q16539)
T3 construct: purchased Ambit Biosciences (San Diego, Calif.)

DAPK2 = target: T4, DAPK2 (Homo sapiens, UniProt Q9UIK4)
T4 construct: purchased Ambit Biosciences (San Diego, Calif.)

PCTK1 = target: T5, PCTK1 (Homo sapiens, UniProt Q00536)
T5 construct: purchased Ambit Biosciences (San Diego, Calif.)

CDK5 = target: T6, CDK5 (Homo sapiens, UniProt Q00535)
T6 construct: purchased Ambit Biosciences (San Diego, Calif.)

FGFR3 = target: T7, FGFR3 (Homo sapiens, UniProt P22607)
T7 construct: purchased Ambit Biosciences (San Diego, Calif.)

RPS6KA2 = target: T8, RPS6KA2 (Homo sapiens, UniProt Q15349)
T8 construct: purchased Ambit Biosciences

EPHA3 = target: T9, EPHA3 (Homo sapiens, UniProt P29320)
T9 construct: purchased Ambit Biosciences (San Diego, Calif.)

LIMK1 = target: T10, LIMK1 (Homo sapiens, UniProt P53667)
T10 construct: purchased Ambit Biosciences (San Diego, Calif.)

MAP3K4 = target: T11, MAP3K4 (Homo sapiens, UniProt Q9Y6R4)
T11 construct: purchased Ambit Biosciences (San Diego, Calif.)
From the text: (§1) The selectivity of a given CK1δ, CK1ε or CK1δ-CK1ε inhibitor compound can be determined by testing the compound against a panel of known kinases. An example of such a kinase profiling technology is the “KinomeScan” from Ambit Biosciences in which compounds can be screened for their modulatory activities against more than 200 known kinases.

CAMK1 = target: T12, CAMK1 (Homo sapiens, UniProt Q14012)
T12 construct: purchased Ambit Biosciences (San Diego, Calif.)
From the text: as §1

CSNK1G2 = target: T13, CSNK1G2 (Homo sapiens, UniProt P78368)
T13 construct: purchased Ambit Biosciences (San Diego, Calif.)
From the text: as §1

PDGFRA = target: T14, PDGFRA (Homo sapiens, UniProt P16234)
T14 construct: purchased Ambit Biosciences (San Diego, Calif.)
From the text: as §1

MARK2 = target: T15, MARK2 (Homo sapiens, UniProt Q7KZI7)
T15 construct: purchased Ambit Biosciences (San Diego, Calif.)
From the text: as §1

BTK = target: T16, BTK (Homo sapiens, UniProt Q06187)
T16 construct: purchased Ambit Biosciences (San Diego, Calif.)
From the text: as §1

PAK3 = target: T17, PAK3 (Homo sapiens, UniProt O75914)
T17 construct: purchased Ambit Biosciences (San Diego, Calif.)
From the text: as §1

DAPK3 = target: T18, DAPK3 (Homo sapiens, UniProt O43293)
T18 construct: purchased Ambit Biosciences (San Diego, Calif.)
From the text: as §1

p38-gamma = target: T19, p38-gamma (Homo sapiens, UniProt P53778)
T19 construct: purchased Ambit Biosciences (San Diego, Calif.)
From the text: as §1

TTK = target: T20, TTK (Homo sapiens, UniProt P33981)
T20 construct: purchased Ambit Biosciences
From the text: as §1

ABL2 = target: T21, ABL2 (Homo sapiens, UniProt P42684)
T21 construct: purchased Ambit Biosciences (San Diego, Calif.)
From the text: as §1

IGF1R = target: T22, IGF1R (Homo sapiens, UniProt P08069)
T22 construct: purchased Ambit Biosciences (San Diego, Calif.)
From the text: as §1

VEGFR2 = target: T23, VEGFR2 (Homo sapiens, UniProt P35968)
T23 construct: purchased Ambit Biosciences (San Diego, Calif.)
From the text: as §1

ERBB2 = target: T24, ERBB2 (Homo sapiens, UniProt P04626)
T24 construct: purchased Ambit Biosciences (San Diego, Calif.)
From the text: as §1

PAK6 = target: T25, PAK6 (Homo sapiens, UniProt Q9NQU5)
T25 construct: purchased Ambit Biosciences (San Diego, Calif.)
From the text: as §1

CAMK2G = target: T26, CAMK2G (Homo sapiens, UniProt Q13555)
T26 construct: purchased Ambit Biosciences (San Diego, Calif.)
From the text: as §1

AURKC = target: T27, AURKC (Homo sapiens, UniProt Q9UQB9)
T27 construct: purchased Ambit Biosciences (San Diego, Calif.)
From the text: as §1

ROS1 = target: T28, ROS1 (Homo sapiens, UniProt P08922)
T28 construct: purchased Ambit Biosciences
From the text: as §1

FGFR1 = target: T29, FGFR1 (Homo sapiens, UniProt P11362)
T29 construct: purchased Ambit Biosciences (San Diego, Calif.)
From the text: as §1

SLK = target: T30, SLK (Homo sapiens, UniProt Q9H2G2)
T30 construct: purchased Ambit Biosciences
From the text: as §1

INSR = target: T31, INSR (Homo sapiens, UniProt P06213)
T31 construct: purchased Ambit Biosciences (San Diego, Calif.)
From the text: as §1

DMPK = target: T32, DMPK (Homo sapiens, UniProt Q09013)
T32 construct: purchased Ambit Biosciences (San Diego, Calif.)
From the text: as §1

ERK2 = target: T33, ERK2 (Homo sapiens, UniProt P28482)
T33 construct: purchased Ambit Biosciences (San Diego, Calif.)
From the text: as §1

CSNK2A1 = target: T34, CSNK2A1 (Homo sapiens, UniProt P68400)
T34 construct: purchased Ambit Biosciences (San Diego, Calif.)
From the text: as §1

STK4 = target: T35, STK4 (Homo sapiens, UniProt Q13043)
T35 construct: purchased Ambit Biosciences

JAK2(Kin.Dom2) = target: T36, JAK2(Kin.Dom2) (Homo sapiens, UniProt O60674)
T36 construct: JAK2(Kin.Dom2); purchased Ambit Biosciences (San Diego, Calif.)

FGR = target: T37, FGR (Homo sapiens, UniProt P09769)
T37 construct: purchased Ambit Biosciences (San Diego, Calif.)

CLK2 = target: T38, CLK2 (Homo sapiens, UniProt P49760)
T38 construct: purchased Ambit Biosciences (San Diego, Calif.)

PAK4 = target: T39, PAK4 (Homo sapiens, UniProt O96013)
T39 construct: purchased Ambit Biosciences (San Diego, Calif.)

Measured: inhibition at 10 µM

T27 sequence (Q9UQB9 whole entry): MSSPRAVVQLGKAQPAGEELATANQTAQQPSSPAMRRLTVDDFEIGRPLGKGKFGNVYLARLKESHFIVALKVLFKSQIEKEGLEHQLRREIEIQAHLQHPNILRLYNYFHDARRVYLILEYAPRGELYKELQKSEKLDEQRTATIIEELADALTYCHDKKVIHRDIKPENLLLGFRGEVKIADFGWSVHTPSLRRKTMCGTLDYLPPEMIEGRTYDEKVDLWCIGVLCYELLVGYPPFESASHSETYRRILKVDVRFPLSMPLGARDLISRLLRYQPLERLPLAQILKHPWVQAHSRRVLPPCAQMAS
T13 sequence (P78368 whole entry): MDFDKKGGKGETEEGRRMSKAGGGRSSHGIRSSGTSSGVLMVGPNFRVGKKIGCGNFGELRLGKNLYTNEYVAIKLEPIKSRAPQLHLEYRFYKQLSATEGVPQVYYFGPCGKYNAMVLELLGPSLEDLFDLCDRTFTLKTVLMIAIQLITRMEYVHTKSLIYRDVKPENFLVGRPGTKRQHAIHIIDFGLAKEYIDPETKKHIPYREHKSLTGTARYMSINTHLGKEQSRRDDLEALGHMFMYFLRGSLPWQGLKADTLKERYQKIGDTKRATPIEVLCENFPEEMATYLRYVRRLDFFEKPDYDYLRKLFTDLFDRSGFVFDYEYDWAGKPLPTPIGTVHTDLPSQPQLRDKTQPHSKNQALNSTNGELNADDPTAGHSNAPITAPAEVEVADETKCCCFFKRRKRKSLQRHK
T20 sequence (P33981 whole entry): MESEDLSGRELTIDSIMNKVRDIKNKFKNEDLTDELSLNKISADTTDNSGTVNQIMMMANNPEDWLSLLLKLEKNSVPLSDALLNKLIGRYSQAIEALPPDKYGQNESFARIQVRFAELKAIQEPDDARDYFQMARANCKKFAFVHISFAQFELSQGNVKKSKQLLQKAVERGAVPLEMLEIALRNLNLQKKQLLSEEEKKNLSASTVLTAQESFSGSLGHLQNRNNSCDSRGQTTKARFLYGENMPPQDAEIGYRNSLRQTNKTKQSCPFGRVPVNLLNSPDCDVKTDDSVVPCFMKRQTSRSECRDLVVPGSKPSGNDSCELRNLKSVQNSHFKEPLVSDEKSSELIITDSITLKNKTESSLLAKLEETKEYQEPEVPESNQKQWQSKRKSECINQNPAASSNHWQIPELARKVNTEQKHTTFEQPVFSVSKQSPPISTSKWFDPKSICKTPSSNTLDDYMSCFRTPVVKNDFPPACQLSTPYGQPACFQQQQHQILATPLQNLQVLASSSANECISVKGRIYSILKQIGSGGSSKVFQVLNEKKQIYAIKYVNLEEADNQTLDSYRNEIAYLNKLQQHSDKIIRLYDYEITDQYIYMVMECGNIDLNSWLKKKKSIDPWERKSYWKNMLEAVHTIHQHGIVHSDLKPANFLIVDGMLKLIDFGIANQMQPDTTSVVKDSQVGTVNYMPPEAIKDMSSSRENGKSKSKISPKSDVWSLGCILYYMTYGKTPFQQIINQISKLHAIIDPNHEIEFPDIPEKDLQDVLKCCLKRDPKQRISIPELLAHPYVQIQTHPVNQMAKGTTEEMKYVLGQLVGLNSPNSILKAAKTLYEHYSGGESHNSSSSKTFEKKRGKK
T2 sequence (Q13188 whole entry): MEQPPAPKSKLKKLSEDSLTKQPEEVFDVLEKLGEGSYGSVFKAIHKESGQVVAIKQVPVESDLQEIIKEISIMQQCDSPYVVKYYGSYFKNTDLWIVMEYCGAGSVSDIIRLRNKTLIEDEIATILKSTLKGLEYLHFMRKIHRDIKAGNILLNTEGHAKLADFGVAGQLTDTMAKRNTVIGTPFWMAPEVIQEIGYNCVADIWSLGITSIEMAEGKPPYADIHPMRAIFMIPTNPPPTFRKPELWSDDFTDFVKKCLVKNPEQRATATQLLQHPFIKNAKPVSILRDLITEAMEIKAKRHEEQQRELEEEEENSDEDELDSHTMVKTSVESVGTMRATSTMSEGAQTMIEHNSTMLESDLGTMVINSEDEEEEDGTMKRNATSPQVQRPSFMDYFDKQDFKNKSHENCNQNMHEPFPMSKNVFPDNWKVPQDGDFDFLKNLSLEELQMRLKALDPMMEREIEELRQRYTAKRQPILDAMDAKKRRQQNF
T35 sequence (Q13043 whole entry): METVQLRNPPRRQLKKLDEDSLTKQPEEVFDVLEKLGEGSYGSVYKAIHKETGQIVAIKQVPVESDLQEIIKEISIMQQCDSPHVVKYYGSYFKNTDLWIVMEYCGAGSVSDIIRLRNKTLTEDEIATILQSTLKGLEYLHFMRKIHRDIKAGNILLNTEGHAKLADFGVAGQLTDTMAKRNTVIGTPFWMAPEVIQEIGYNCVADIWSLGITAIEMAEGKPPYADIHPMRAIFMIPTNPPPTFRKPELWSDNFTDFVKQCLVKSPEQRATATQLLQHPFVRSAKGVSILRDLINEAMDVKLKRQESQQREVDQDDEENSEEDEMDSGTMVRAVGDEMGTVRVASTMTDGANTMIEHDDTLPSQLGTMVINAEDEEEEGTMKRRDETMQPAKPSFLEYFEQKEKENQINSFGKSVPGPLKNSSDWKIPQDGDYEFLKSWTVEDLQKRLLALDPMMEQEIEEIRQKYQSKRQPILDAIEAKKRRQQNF
T15 sequence (Q7KZI7 whole entry): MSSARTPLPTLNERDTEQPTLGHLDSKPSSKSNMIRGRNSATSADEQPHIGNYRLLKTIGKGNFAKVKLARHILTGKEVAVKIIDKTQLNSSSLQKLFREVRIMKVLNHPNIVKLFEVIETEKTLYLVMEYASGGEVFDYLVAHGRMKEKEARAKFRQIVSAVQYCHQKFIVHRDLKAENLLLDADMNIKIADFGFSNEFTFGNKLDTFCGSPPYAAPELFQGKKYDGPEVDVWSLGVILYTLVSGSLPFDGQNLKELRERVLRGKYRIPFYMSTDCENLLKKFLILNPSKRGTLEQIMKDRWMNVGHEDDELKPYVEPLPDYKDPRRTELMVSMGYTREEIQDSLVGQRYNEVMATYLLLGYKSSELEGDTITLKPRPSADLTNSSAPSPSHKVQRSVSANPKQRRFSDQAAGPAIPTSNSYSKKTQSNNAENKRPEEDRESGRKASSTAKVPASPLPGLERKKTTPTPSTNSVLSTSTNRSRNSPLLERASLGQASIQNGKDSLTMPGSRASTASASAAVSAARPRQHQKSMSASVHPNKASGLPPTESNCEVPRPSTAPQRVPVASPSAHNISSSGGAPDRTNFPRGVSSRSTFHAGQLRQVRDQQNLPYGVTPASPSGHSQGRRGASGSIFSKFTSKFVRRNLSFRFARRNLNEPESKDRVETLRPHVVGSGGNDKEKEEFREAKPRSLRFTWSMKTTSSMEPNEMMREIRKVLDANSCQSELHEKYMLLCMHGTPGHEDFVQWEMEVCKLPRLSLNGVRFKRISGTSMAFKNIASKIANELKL
T32 sequence (Q09013 whole entry): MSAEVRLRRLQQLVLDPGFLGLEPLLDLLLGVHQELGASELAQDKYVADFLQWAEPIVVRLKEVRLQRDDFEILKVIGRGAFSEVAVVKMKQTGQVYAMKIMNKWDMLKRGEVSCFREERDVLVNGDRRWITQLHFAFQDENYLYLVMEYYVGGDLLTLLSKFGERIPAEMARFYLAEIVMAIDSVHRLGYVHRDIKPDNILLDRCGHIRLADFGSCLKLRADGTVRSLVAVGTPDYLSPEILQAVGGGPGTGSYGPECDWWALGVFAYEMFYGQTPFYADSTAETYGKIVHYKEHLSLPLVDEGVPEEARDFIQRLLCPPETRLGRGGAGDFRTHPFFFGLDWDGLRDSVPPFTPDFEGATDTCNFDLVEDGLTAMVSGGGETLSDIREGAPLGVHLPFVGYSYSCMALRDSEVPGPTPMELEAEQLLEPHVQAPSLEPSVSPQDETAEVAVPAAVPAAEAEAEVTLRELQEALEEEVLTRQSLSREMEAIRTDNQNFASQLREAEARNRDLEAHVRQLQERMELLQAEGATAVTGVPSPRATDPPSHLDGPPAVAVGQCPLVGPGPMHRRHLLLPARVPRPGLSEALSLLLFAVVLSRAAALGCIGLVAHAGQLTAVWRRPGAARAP
T6 sequence (Q00535 whole entry): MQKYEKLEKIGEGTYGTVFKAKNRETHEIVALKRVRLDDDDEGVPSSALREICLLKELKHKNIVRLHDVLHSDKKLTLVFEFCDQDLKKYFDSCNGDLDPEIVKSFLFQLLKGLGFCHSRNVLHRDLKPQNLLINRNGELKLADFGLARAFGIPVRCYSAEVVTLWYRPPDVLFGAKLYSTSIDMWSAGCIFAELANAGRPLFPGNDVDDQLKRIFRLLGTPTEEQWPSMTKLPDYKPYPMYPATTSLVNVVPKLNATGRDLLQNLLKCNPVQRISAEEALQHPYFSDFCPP
T25 sequence (Q9NQU5 whole entry): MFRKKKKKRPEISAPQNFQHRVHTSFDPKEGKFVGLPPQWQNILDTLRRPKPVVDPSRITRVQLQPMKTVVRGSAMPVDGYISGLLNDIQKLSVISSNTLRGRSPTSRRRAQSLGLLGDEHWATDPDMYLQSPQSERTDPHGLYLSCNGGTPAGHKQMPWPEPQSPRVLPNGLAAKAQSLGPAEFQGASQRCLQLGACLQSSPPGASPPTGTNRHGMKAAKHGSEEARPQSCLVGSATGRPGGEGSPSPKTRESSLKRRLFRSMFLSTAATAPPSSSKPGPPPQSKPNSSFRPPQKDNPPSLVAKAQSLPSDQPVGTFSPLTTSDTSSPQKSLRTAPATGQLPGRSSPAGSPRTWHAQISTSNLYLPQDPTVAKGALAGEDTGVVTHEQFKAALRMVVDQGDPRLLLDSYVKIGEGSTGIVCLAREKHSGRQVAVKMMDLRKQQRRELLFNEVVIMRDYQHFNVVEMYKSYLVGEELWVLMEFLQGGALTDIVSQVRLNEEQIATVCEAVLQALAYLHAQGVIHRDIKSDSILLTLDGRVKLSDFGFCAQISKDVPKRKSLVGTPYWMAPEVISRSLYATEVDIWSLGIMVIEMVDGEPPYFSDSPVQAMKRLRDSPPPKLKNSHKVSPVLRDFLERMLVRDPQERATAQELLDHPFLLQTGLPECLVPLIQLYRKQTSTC

NC(=O)c1ccc(-c2nc(-c3ccc4c(c3)OCO4)c(-c3ccccn3)[nH]2)cc1 [SB431542, 4-(4-benzo-[1,3]dioxol-5-yl-5-pyridin-2-yl-1H-imidazol-2-yl)benzamide]
< 50%: AMPK-alpha1 | STK3 | p38-alpha | DAPK2 | PCTK1 | CDK5 | FGFR3 | RPS6KA2 | EPHA3 | LIMK1 | MAP3K4 | CAMK1 | CSNK1G2; 10 μM, CSNK1G2, read-out: % Inhibition | PDGFRA | MARK2 | BTK | PAK3 | DAPK3 | p38-gamma | TTK | ABL2 | IGF1R | VEGFR2 | ERBB2 | PAK6 | CAMK2G | AURKC | ROS1 | FGFR1 | SLK | INSR | DMPK | ERK2 | CSNK2A1 | STK4 | JAK2(Kin.Dom2) | FGR | CLK2 | PAK4

NC(=O)c1ccc(-c2nc(-c3ccc4c(c3)OCCO4)c(-c3ccccn3)[nH]2)cc1 [D4476, 4-[4-(2,3-Dihydro-benzo[1,4]dioxin-6-yl)-5-pyridin-2-yl-1H-imidazol-2-yl]benzamide]
< 50%: AMPK-alpha1 | STK3 | p38-alpha | DAPK2 | PCTK1 | CDK5 | FGFR3 | RPS6KA2 | EPHA3 | LIMK1 | MAP3K4 | CAMK1 | CSNK1G2 | PDGFRA | MARK2 | BTK | PAK3 | DAPK3 | p38-gamma | TTK | ABL2 | IGF1R | VEGFR2 | ERBB2 | PAK6 | CAMK2G | AURKC | ROS1 | FGFR1 | SLK | INSR | DMPK | ERK2 | CSNK2A1 | STK4 | JAK2(Kin.Dom2) | FGR | CLK2 | PAK4
